Holding throughout (assay type): cell-based
The test system of one assay is MDA-MB-468 cells. Description: MTT proliferation assay, MDA-MB-468. As to conditions: Homo sapiens, MDA-MB-468, MTT. As to the method:
(§1) Test results were recorded. A cell growth curve was drawn with the dosage of each compound as abscissa and the absorbance value as ordinate.
In general terms: Tetrazolium assays rely on reduction of a dye to a coloured formazan, in cell work by metabolically active cells.

A further assay deals with HepG2 cells. The experiment in a line: MTT proliferation assay, HepG2. As to conditions: Homo sapiens. Here is the method:
(§2) Difference cell lines HepG2, SMMC-7721, HuH-7, MCF-7, MDA-MB-231, MDA-MB-468, PC9, PC9-AR, PC9-GR, Jurkat and Molt-13 were harvested during log phase; the number of the cells in an original cell suspension was counted; the original cell suspension was diluted to a density of 5×10^4 cells/mL; for a 96-well plate, 100 uL of the cell suspension was transferred to each well; DMSO is used as solvent for negative control; (2E)-3-(6-bromo-2-pyridyl)-2-cyano-N-[(1S)-1-phenylethyl]-2-acrylamide (WP1066CAS: 857064-38-1, with a formula
(§3) or gefitinib was used as a positive control; the naphthylurea compound ID1120B-1 and the phosphate ID1120B-P thereof were diluted with DMSO and added into the 96-well plate to achieve a final concentration of 0.1, 0.3, 1, 3, 10, 30, 100 and 300 μmol/L in each well; the 96-well plate was incubated for 48 h; 10 μL of MTT solvent (5 mg/mL) was added into each well; the 96-well plate was incubated at 37° C. for 4 h; a culture supernatant was discarded; 150 μL of DMSO was added into each well; the 96-well plate was shaken for 10 min on a plate shaker; an optical density (OD) of the resulting product was measured at a wavelength of 490 nm by an ELISA reader. Test results were recorded. A cell growth curve was drawn with the dosage of each compound as abscissa and the absorbance value as ordinate. The half maximum inhibition rates (IC50 value) of the cancer cells were shown in Table 1, FIGS. 1A-1J and FIGS. 2A-2J.

For another assay, the system named is HuH-7 cells. The experiment in a line: MTT proliferation assay, HuH-7. As to conditions: Homo sapiens; HuH-7, MTT, 48 h. Here is the method:
as §2, §3

The next assay deals with MCF-7 cells. Description: MTT proliferation assay, MCF-7. As to conditions: Homo sapiens. As to the method:
as §1

The subject of another assay is SMMC-7721 cells. Description: MTT proliferation assay, SMMC-7721. As to conditions: Homo sapiens; SMMC-7721, MTT, 48 h. As to the method:
as §2, §3

The mark [1] stands for this setting: MCF7, MCF-7, MTT, 48 h, read-out: IC50.

Like-named read-outs stand apart in the source and are kept apart here.

One may read the IC50 as the concentration that gives 50% inhibition. `O=C(Nc1ccc(OCc2ccc(OCCN3CCCCC3)cc2Cl)c2ccccc12)NC1CCCCC1` [ID1215C-1]: in the assay with MDA-MB-468 cells (48 h), 3.47 µM corresponded to half-maximal inhibition (IC50).
In the case of `O=C(Nc1ccc(OC(F)(F)F)c(Cl)c1)Nc1ccc(OCc2ccc(OCCN3CCCCC3)cc2)c2ccccc12` [ID1229C-1], the half-inhibitory concentration (IC50) with MDA-MB-468 cells (MDA-MB-468, 48 h) came to 47.5 µM; with HepG2 cells (HepG2, 48 h) it was 50.3 µM.
For the molecule `COc1ccc(NC(=O)Nc2ccc(OCc3ccc(OCCN4CCCCC4)c(Cl)c3)c3ccccc23)cc1` [ID210110C-1], the half-maximal inhibitory concentration (IC50) in the assay with MDA-MB-468 cells (MDA-MB-468, 48 h) amounted to 6.13 µM.
In turn, `O=C(Nc1ccccc1)Nc1ccc(OCc2ccc(OCCN3CCCCC3)cc2)c2ccccc12` [IY1223B-1] registered an IC50 in the assay with MDA-MB-468 cells (MDA-MB-468, 48 h) of 13.2 µM.
Take `O=C(NCc1ccc(OC(F)(F)F)cc1)Nc1ccc(OCc2ccc(OCCN3CCCCC3)cc2)c2ccccc12` [ID210118D-1]: the IC50 turned out to be 26.5 µM with HuH-7 cells and 37 µM in the assay with HepG2 cells (HepG2, 48 h).
In the case of `O=C(Nc1ccc(F)cc1)Nc1ccc(OCc2ccc(OCCN3CCCCC3)cc2)c2ccccc12` [IY210105D-1], the half-maximal inhibitory concentration (IC50) in the assay with MDA-MB-468 cells (MDA-MB-468, 48 h) came to 3.8 µM; in the assay on HepG2 cells (HepG2, 48 h) it was 3.8 µM.
As for `O=C(Nc1ccncc1)Nc1ccc(OCc2ccc(OCCN3CCCCC3)cc2)c2ccccc12` [IY210122C-1], the IC50 with MDA-MB-468 cells (MDA-MB-468, 48 h) worked out at 11.6 µM; in the assay on HepG2 cells (HepG2, 48 h), 11 µM.
Consider `O=C(NCc1ccc(F)c(Cl)c1)Nc1ccc(OCc2ccc(OCCN3CCCCC3)cc2)c2ccccc12` [ID210115B-1], for which the half-maximal inhibitory concentration (IC50) in the assay on MCF-7 cells (setting [1]) amounted to 39 µM; with HepG2 cells (HepG2, 48 h), 4.65 µM.
`O=C(Nc1ccc(Cl)cc1)Nc1ccc(OCc2ccc(OCCN3CCCCC3)c(F)c2)c2ccccc12` [IY210106D-1]: the 50% inhibitory concentration (IC50) in the assay with MDA-MB-468 cells (48 h) stood at 6.34 µM.
With `O=C(Nc1ccc(OCc2ccc(OCCN3CCCCC3)cc2)c2ccccc12)NC1CCOCC1` [ID210127B-1], the half-inhibitory concentration (IC50) was 0.736 µM in the assay with MDA-MB-468 cells (MDA-MB-468, 48 h) and 3.5 µM with HepG2 cells (HepG2, 48 h).
Take `O=C(Nc1ccc(Cl)cc1F)Nc1ccc(OCc2ccc(OCCN3CCCCC3)cc2)c2ccccc12` [IY210103B-1]: the 50% inhibitory concentration (IC50) in the assay with MDA-MB-468 cells (MDA-MB-468, 48 h) was found to be 20.4 µM; in the assay on HepG2 cells (HepG2, 48 h), 68.2 µM.
The like results for `O=C(Nc1ncccc1Cl)Nc1ccc(OCc2ccc(OCCN3CCCCC3)cc2)c2ccccc12` [ID210119B-1] were, in that order, 26.6 µM and 26.5 µM.
With `O=C(NCc1cccc(Cl)c1)Nc1ccc(OCc2ccc(OCCN3CCCCC3)cc2)c2ccccc12` [ID210106D-1], the IC50 amounted to 6.83 µM in the assay on HuH-7 cells and 5.25 µM in the assay with HepG2 cells (HepG2, 48 h).
Regarding `O=C(Nc1ccc(F)cc1)Nc1ccc(OCc2ccc(OCCN3CCCCC3)c(Br)c2)c2ccccc12` [IY210105A-1], inhibition in the assay on MDA-MB-468 cells (MDA-MB-468, 48 h) was half-maximal at 20.4 µM (IC50).
In the case of `O=C(Nc1ccc(Cl)c(F)c1)Nc1ccc(OCc2ccc(OCCN3CCCCC3)cc2)c2ccccc12` [IY1229C-1], half-maximal inhibition in the assay on HepG2 cells (HepG2, 48 h) (IC50) was put at 6.43 µM.
`O=C(NCc1ccc(F)cc1)Nc1ccc(OCc2ccc(OCCN3CCCCC3)cc2)c2ccccc12` [IY210119B-1]: the IC50 in the assay with HepG2 cells (HepG2, 48 h) stood at 3.5 µM; with SMMC-7721 cells it was 0.736 µM.
Molecule `O=C(Nc1ccc(OCc2ccc(OCCN3CCCCC3)cc2F)c2ccccc12)NC1CCCC1` [IY1215C-1] showed a half-inhibitory concentration (IC50) in the assay on MDA-MB-468 cells (MDA-MB-468, 48 h) of 5.36 µM.
Take `COc1cc(NC(=O)Nc2ccc(OCc3ccc(OCCN4CCCCC4)cc3)c3ccccc23)ccc1F` [IY210105C-1]: the concentration for half-maximal inhibition (IC50) in the assay on MDA-MB-468 cells (MDA-MB-468, 48 h) is 1.89 µM; in the assay with HepG2 cells (HepG2, 48 h) it was 4.39 µM.
Consider `COc1ccc(NC(=O)Nc2ccc(OCc3ccc(OCCN4CCCCC4)cc3)c3ccccc23)cc1Cl` [IY1225B-1], for which the IC50 in the assay on HepG2 cells (HepG2, 48 h) is 1.95 µM.
Consider `COc1ccc(CNC(=O)Nc2ccc(OCc3ccc(OCCN4CCCCC4)cc3)c3ccccc23)cc1` [ID210113C-1], for which the half-inhibitory concentration (IC50) turned out to be 4.75 µM in the assay on HuH-7 cells and 1.31 µM with HepG2 cells (HepG2, 48 h).
For `O=C(Nc1ccc(Cl)cc1)Nc1ccc(OCc2ccc(OCCN3CCCCC3)cc2)c2ccccc12` [IY1229D-1], the IC50 in the assay on MDA-MB-468 cells (48 h) is 14.2 µM; with HepG2 cells (48 h), 12.2 µM.
`O=C(Nc1ccc(OCc2ccc(OCCN3CCCCC3)cc2)c2ccccc12)NC1CCCC1` [ID1217B-1]: the half-maximal inhibitory concentration (IC50) in the assay on MDA-MB-468 cells (MDA-MB-468, 48 h) was determined as 33.9 µM; with HepG2 cells (HepG2, 48 h), 72.6 µM.
With `O=C(NCc1ccc(F)cc1F)Nc1ccc(OCc2ccc(OCCN3CCCCC3)cc2)c2ccccc12` [IY210118B-1], the IC50 in the assay with SMMC-7721 cells turned out to be 23.6 µM.
On the same count and under the same terms, under `N#Cc1cc(OCCN2CCCCC2)ccc1COc1ccc(NC(=O)NCc2ccccc2)c2ccccc12` [ID1120D-1] stands 6.89 µM.
As to `O=C(NCc1cc(F)cc(F)c1)Nc1ccc(OCc2ccc(OCCN3CCCCC3)cc2)c2ccccc12` [IY210115B-1], the concentration for half-maximal inhibition (IC50) was 5.77 µM in the assay on HepG2 cells (HepG2, 48 h) and 40.1 µM in the assay with SMMC-7721 cells.
Consider `CNC(=O)c1cc(Oc2ccc(NC(=O)Nc3ccc(Cl)c(C(F)(F)F)c3)cc2)ccn1` [Sorafenib, reference compound], for which the IC50 was determined as 17.6 µM with HuH-7 cells; 6.17 µM with HepG2 cells (HepG2, 48 h); 30 µM in the assay with SMMC-7721 cells.
In the assay on MCF-7 cells (MCF7, 48 h), `O=C(NCCc1ccccc1)Nc1ccc(OCc2ccc(OCCN3CCCCC3)cc2)c2ccccc12` [ID1210B-1] displayed an IC50 of 8.08 µM.
Molecule `O=C(Nc1ccc(-c2ccccc2)cc1)Nc1ccc(OCc2ccc(OCCN3CCCCC3)cc2)c2ccccc12` [IY210128B-1] yielded a concentration for half-maximal inhibition (IC50) in the assay with MDA-MB-468 cells (MDA-MB-468, 48 h) of 62.5 µM.
With `O=C(NCc1ccc(C(F)(F)F)cc1)Nc1ccc(OCc2ccc(OCCN3CCCCC3)cc2)c2ccccc12` [IY210113D-1], the concentration for half-maximal inhibition (IC50) in the assay with HuH-7 cells was determined as 13.7 µM; in the assay on HepG2 cells (HepG2, 48 h), 3.36 µM.
As to `O=C(Nc1ccc(F)c(F)c1)Nc1ccc(OCc2ccc(OCCN3CCCCC3)cc2)c2ccccc12` [ID210105C-1], the IC50 in the assay with HepG2 cells (HepG2, 48 h) worked out at 66.9 µM.
As to `O=C(Nc1ccc(OCc2ccc(OCCN3CCCCC3)cc2)c2ccccc12)NC1CCCCC1` [ID1207B-1], the half-inhibitory concentration (IC50) with MDA-MB-468 cells (48 h) was found to be 267 µM; in the assay on HepG2 cells (48 h) it was 462 µM.
As to `O=C(NCc1ccccc1)Nc1ccc(OCc2ccc(OCCN3CCCCC3)c(Cl)c2)c2ccccc12` [ID1120C-1], 6.75 µM corresponded to half-maximal inhibition in the assay on SMMC-7721 cells (IC50).
In the case of `S=C(NCc1ccccc1)Nc1ccc(OCc2ccc(OCCN3CCCCC3)cc2)c2ccccc12` [IY1207A-1], the IC50 with MCF-7 cells (setting [1]) stood at 24.3 µM.
Turning to `O=C(Nc1ccc(F)c(Cl)c1)Nc1ccc(OCc2ccc(OCCN3CCCCC3)cc2)c2ccccc12` [IY210105B-1], the IC50 in the assay on MDA-MB-468 cells (MDA-MB-468, 48 h) amounted to 51.4 µM; in the assay with HepG2 cells (HepG2, 48 h), 43.8 µM.
In the case of `O=C(NCc1ccc(Cl)c(C(F)(F)F)c1)Nc1ccc(OCc2ccc(OCCN3CCCCC3)cc2)c2ccccc12` [ID210114B-1], the half-maximal inhibitory concentration (IC50) in the assay on MCF-7 cells (setting [1]) was found to be 13.2 µM; in the assay on HepG2 cells (HepG2, 48 h), 3.97 µM.
In the assay with HepG2 cells (HepG2, 48 h), `COc1ccc(NC(=O)Nc2ccc(OCc3ccc(OCCN4CCCCC4)cc3)c3ccccc23)cc1OC` [ID1224C-1] came in with an IC50 of 93.8 µM.
Regarding `O=C(NCc1ccc(Cl)cc1)Nc1ccc(OCc2ccc(OCCN3CCCCC3)cc2)c2ccccc12` [IY210113C-1], the IC50 with HuH-7 cells came out at 12.5 µM; in the assay with HepG2 cells (HepG2, 48 h), 3.94 µM.

For the origin of these results see patent publication US20230271928A1, “NAPHTHYLUREA COMPOUND, METHODS OF PREPARATION AND USE THEREOF” (Henan Radiomedical Science and Technology Co., Ltd., priority 2021, published 2023).
